Reference: patent publication US8546414B2, “Ion channel modulators and methods of use” (Vertex Pharmaceuticals Incorporated, priority 2004, dated 2013)

Columns and labels:
Format in all cases: cell-based
CaV2.2 = target: T1, CaV2.2 (Homo sapiens, UniProt Q00975); test: VIPR optical membrane potential assay with electrical stimulation, CaV2.2; settings: Table 9, CaV 2.2 receptors
T1 construct: expressed in transfected cells; host or cells: HEK293
In short: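 HEK293 cells stably expressing CaV2.2 stained with CC2-DMPE/DiSBAC2(3) voltage-sensitive dyes (10 μM final CC2-DMPE, 30 min, RT), then compound added and cells electrically stimulated for 3-5 s. Read-out: background-subtracted 460/580 nm emission ratio; response R=Rf/Ri (post- vs pre-stimulus ratio); antagonism seen as reduced response.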

NaV1.3 = target: T2, NaV1.3 (Homo sapiens, UniProt Q9NY46); test: VIPR optical membrane potential assay with electrical stimulation, NaV1.3; settings: Table 9, NaV 1.3 receptors
T2 construct: expressed in transfected cells; host or cells: HEK293
In short: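 HEK293 cells stably expressing NaV1.3, stained with CC2-DMPE (10 μM final) then DiSBAC2(3) with ABSC1, 30 min each at RT; compounds added with oxonol. Electrical stimulation for 3 s; 460/580 nm background-subtracted emission ratio Rf/Ri, normalised to tetracaine (positive) and untreated (negative) controls.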

NaV1.8 = NaV1.8 (Homo sapiens, UniProt Q9Y5Y9); test: VIPR optical membrane potential assay, NaV1.8 (other subtypes in an analogous mode); settings: Table 9, NaV 1.8 receptors
Experimental: Antagonist properties of test compounds were assessed as follows. Cells expressing the NaV of interest were placed into microtiter plates. After an incubation period, the cells were stained with fluorescent dyes sensitive to the transmembrane potential. The test compounds were added to the microtiter plate. The cells were stimulated with either chemical or electrical means to evoke a NaV dependent membrane potential change from unblocked channels, which was detected and measured with trans-membrane potential-sensitive dyes. Antagonists were detected as a decreased membrane potential response to the stimulus.
24 hours before the assay on VIPR, CHO cells endogenously expressing a NaV 1.2 type voltage-gated NaV are seeded in 96-well poly-lysine coated plates at 60,000 cells per well. […] Plates are incubated in the dark for 30 minutes at room temperature. • 4) While the cells are being stained with coumarin, a […] oxonol solution in BS#2 is prepared. […] As before, the residual volume should be 40 μL. • 6) Upon removing the bath, the cells are loaded with 80 μL of the DiSBAC2(3) solution, after which test compound, dissolved in DMSO, is added to achieve the desired test concentration to each well from the drug addition plate and mixed thoroughly. The volume in the well should be roughly 121 μL. The cells are then incubated for 20-30 minutes. • 7) Once the incubation is complete, the cells are ready to be assayed on VIPR® with a sodium addback protocol. 120 μL of Bath solution #1 is added to stimulate the NaV dependent depolarization. […] tetracaine was used as an antagonist positive control for block of the NaV channel. Analysis of VIPR® Data:
The following is an example of how NaV1.3 inhibition activity is measured using the optical membrane potential method#2. Other subtypes are performed in an analogous mode in a cell line expressing the NaV of interest.

Chain of NaV1.8 (Q9Y5Y9 whole entry): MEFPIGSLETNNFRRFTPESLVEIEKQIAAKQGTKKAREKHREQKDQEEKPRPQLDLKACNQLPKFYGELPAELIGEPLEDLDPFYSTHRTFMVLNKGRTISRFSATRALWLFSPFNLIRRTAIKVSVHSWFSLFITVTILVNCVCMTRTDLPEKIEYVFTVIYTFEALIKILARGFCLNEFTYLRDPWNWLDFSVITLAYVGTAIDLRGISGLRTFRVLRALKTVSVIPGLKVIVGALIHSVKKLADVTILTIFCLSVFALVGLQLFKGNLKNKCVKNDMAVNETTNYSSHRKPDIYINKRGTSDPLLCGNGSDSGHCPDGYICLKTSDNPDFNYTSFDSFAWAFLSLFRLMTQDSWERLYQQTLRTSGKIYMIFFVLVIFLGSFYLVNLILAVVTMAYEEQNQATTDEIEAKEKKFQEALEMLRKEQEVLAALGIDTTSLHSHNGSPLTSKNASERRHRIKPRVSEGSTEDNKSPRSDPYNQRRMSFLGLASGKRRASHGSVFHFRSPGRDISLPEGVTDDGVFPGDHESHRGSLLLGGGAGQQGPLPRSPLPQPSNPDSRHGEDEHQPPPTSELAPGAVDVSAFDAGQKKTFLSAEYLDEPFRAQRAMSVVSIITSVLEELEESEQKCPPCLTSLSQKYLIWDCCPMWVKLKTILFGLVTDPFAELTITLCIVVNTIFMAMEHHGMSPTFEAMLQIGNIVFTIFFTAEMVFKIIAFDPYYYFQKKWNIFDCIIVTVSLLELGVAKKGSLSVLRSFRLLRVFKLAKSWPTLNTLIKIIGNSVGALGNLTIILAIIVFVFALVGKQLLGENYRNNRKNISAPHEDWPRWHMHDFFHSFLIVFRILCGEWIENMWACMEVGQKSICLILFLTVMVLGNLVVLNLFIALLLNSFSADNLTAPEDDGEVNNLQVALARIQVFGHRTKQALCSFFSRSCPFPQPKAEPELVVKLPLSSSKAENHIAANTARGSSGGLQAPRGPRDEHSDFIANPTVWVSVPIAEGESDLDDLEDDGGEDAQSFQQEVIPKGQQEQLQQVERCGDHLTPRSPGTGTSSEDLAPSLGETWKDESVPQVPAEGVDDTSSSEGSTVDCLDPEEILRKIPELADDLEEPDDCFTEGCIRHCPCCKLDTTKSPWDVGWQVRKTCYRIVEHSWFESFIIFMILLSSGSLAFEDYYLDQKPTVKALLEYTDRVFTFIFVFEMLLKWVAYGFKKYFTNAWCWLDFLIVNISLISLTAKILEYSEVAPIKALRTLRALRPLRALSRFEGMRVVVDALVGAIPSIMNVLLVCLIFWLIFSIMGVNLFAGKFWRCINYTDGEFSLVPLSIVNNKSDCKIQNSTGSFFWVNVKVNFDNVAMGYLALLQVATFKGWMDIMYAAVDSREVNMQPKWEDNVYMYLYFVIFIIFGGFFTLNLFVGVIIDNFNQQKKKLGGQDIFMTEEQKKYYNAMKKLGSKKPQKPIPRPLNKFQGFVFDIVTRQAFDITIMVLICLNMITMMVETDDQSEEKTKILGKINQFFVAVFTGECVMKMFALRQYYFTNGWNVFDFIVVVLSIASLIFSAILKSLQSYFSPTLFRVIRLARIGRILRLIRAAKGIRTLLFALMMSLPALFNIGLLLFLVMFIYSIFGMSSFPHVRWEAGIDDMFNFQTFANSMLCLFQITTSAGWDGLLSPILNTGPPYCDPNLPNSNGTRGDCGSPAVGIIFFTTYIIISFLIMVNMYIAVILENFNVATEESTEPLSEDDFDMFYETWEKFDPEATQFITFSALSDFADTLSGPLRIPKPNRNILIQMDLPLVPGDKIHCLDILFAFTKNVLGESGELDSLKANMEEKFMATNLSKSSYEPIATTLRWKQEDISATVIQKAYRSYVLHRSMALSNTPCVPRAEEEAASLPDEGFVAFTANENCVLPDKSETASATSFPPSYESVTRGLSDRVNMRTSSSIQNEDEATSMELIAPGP
T2 sequence (Q9NY46 whole entry): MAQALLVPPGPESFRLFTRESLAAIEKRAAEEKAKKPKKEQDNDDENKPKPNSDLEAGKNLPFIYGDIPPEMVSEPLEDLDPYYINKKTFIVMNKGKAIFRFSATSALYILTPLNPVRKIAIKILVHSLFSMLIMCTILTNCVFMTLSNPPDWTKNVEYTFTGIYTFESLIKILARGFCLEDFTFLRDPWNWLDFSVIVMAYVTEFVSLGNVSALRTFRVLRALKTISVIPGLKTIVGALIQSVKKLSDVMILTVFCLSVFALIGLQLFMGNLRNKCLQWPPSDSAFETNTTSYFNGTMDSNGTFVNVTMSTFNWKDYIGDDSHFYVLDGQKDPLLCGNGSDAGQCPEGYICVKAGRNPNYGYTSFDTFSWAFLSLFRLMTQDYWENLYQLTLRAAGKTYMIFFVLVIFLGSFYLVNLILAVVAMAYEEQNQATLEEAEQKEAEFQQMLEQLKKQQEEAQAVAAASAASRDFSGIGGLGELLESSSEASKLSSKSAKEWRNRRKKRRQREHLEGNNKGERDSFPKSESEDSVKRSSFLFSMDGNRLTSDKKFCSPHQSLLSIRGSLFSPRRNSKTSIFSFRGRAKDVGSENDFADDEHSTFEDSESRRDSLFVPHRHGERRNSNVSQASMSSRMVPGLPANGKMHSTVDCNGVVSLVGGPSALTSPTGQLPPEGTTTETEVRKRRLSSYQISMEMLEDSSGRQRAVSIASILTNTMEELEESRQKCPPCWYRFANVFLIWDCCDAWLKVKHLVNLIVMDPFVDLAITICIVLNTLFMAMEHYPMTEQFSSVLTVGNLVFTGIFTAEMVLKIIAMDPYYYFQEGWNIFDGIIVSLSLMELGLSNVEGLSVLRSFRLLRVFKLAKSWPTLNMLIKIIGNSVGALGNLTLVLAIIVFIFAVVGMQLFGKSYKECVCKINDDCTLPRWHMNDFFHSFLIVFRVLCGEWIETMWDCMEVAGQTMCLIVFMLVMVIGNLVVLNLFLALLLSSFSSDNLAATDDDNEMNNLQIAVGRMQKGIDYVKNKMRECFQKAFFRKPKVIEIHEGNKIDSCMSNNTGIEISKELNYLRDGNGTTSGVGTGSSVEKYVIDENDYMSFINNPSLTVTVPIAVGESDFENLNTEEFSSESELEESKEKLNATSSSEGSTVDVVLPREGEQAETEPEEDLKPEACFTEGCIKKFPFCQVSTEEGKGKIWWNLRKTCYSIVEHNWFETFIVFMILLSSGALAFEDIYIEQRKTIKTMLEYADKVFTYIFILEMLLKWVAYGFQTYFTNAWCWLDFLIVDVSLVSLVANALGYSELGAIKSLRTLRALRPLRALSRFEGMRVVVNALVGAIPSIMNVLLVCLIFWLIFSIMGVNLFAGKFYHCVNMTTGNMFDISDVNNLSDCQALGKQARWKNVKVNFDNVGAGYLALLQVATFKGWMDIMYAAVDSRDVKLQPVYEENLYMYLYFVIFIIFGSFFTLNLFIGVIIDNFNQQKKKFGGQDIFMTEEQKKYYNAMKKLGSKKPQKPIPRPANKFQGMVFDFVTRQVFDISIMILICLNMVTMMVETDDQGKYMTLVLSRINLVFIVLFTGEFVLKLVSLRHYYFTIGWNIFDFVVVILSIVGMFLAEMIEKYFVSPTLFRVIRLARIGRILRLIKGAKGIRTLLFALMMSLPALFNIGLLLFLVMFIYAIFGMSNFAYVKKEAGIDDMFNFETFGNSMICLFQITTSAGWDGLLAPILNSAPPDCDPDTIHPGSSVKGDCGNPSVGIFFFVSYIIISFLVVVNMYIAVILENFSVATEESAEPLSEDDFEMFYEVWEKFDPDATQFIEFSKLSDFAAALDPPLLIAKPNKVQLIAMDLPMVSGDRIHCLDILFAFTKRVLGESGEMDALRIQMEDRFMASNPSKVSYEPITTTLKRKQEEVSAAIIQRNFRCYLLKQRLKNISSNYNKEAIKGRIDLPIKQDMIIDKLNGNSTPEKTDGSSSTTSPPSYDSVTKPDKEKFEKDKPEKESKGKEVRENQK

Row | IC50 (CaV2.2) [µM] | IC50 (NaV1.3) [µM] | IC50 (NaV1.8) [µM] | Structure (SMILES)
1 | 2 to 10 | 2 to 10 | > 10 | CC(C)N(C(=O)c1cnc(N2CCC3CCCCC3C2)nc1-c1ccccc1F)c1cccc(C#N)c1 (stereo not drawn) [compound 54]
2 | 2 to 10 | 2 to 10 | 2 to 10 | COc1cccc(CN(C(=O)c2cnc(N3CCCCC3)nc2-c2ccccc2Cl)C(C)C)c1 [compound 55]
3 | 2 to 10 | > 10 | > 10 | COc1cccc(CN(C(=O)c2cnc(N3CCOCC3)nc2-c2ccccc2F)C2CC2)c1 [compound 56]
4 | > 10 | > 10 | > 10 | COc1cccc(N(C(=O)c2cnc(N3CCCCC3)nc2-c2ccccc2Cl)C2CC2)c1 [compound 58]
5 | < 2 | 2 to 10 | 2 to 10 | CC(C)N(Cc1ccc(C(C)(C)C)cc1)C(=O)c1cnc(N2CCSCC2)nc1-c1ccccc1F [compound 59]
6 | 2 to 10 | > 10 | > 10 | O=C(c1cnc(N2CCOCC2)nc1-c1ccccc1F)N(Cc1cccc(-c2ccncc2)c1)C1CC1 [compound 60]
7 | 2 to 10 | 2 to 10 | > 10 | COc1cccc(N(C(=O)c2cnc(N3CCSCC3)nc2-c2ccccc2F)C(C)C)c1 [compound 62]
8 | > 10 | > 10 | > 10 | Cc1ccc(Nc2ncc(C(=O)N(Cc3ccccc3)C(C)C)c(-c3ccccc3F)n2)cc1 [compound 63]
9 | 2 to 10 | 2 to 10 | > 10 | O=C(c1cnc(N2CCOCC2)nc1-c1ccccc1F)N(Cc1ccccc1)C1CCCCC1 [compound 64]
10 | 2 to 10 | > 10 | > 10 | COc1cccc(N(C(=O)c2cnc(N3CCC4CCCCC4C3)nc2-c2ccccc2F)C2CCC2)c1 (stereo not drawn) [compound 65]
11 | 2 to 10 | > 10 | > 10 | CC(C)N(C(=O)c1cnc(N2CCCCC2)nc1-c1ccccc1F)c1cccc(O)c1 [compound 66]
12 | > 10 | > 10 | > 10 | CC(C)N(C(=O)c1cnc(N2CCOCC2)nc1-c1ccccc1F)c1ccc2c(c1)OCCO2 [compound 67]
13 | 2 to 10 | > 10 | > 10 | COc1cccc(N(C(=O)c2cnc(N3CCC4CCCCC4C3)nc2-c2ccccc2F)C2CCOCC2)c1 (stereo not drawn) [compound 68]
14 | 2 to 10 | > 10 | > 10 | CC1CN(c2ncc(C(=O)N(Cc3ccccc3)C(C)C)c(-c3ccccc3F)n2)CC(C)O1 (stereo not drawn) [compound 69]
15 | < 2 | 2 to 10 | > 10 | CC(C)N(C(=O)c1cnc(N2CCCCC2)nc1-c1ccccc1F)c1ccc2c(c1)OCO2 [compound 70]
16 | > 10 | > 10 | > 10 | O=C(c1cnc(N2CCOCC2)nc1-c1ccccc1F)N1CC=C(c2ccc(F)cc2)CC1 [compound 71]
17 | > 10 | > 10 | > 10 | CC(C)N(Cc1ccccc1)C(=O)c1cnc(Nc2cccc(C(N)=O)c2)nc1-c1ccccc1F [compound 73]
18 | 2 to 10 | 2 to 10 | > 10 | COc1cccc(CN(C(=O)c2cnc(N3CCOCC3)nc2-c2ccccc2F)C(C)C)c1 [compound 74]
19 | > 10 | > 10 | > 10 | N#CCCN(Cc1ccccc1)C(=O)c1cnc(N2CCOCC2)nc1-c1ccccc1F [compound 75]
20 | > 10 | > 10 | > 10 | CC(C)N(C(=O)c1cnc(N2CCOCC2)nc1-c1ccccc1F)c1cccc2ccccc12 [compound 76]
21 | 2 to 10 | 2 to 10 | > 10 | O=C(c1cnc(N2CCCCC2)nc1-c1ccccc1F)N(Cc1ccc2c(c1)CCO2)C1CC1 [compound 77]
22 | < 2 | 2 to 10 | 2 to 10 | CC(C)N(Cc1ccccc1)C(=O)c1cnc(N2CCc3ccccc3C2)nc1-c1ccccc1F [compound 78]
23 | > 10 | > 10 | > 10 | O=C(NC1CC1)c1cnc(N2CCOCC2)nc1-c1ccccc1F [compound 79]

Row | IC50 (CaV2.2) [µM] | IC50 (NaV1.3) [µM] | IC50 (NaV1.8) [µM] | Structure (SMILES)
24 | 2 to 10 | 2 to 10 | > 10 | O=C(c1cnc(N2CCSCC2)nc1-c1ccccc1F)N(Cc1ccccc1)C1CCC1 [compound 80]
25 | 2 to 10 | 2 to 10 | > 10 | CCC(COC)N(Cc1ccccc1)C(=O)c1cnc(N2CCSCC2)nc1-c1ccccc1F (stereo not drawn) [compound 81]
26 | 2 to 10 | > 10 | > 10 | CC(C)N(C(=O)c1cnc(N2CCCCC2)nc1-c1ccccc1Cl)c1ccccc1 [compound 82]
27 | < 2 | 2 to 10 | 2 to 10 | CCN(CCOC)c1ncc(C(=O)N(Cc2ccccc2)C(C)C)c(-c2ccccc2F)n1 [compound 83]
28 | > 10 | > 10 | > 10 | CC1COc2ccccc2N1C(=O)c1cnc(N2CCOCC2)nc1-c1ccccc1F (stereo not drawn) [compound 84]
29 | > 10 | 2 to 10 | 2 to 10 | O=C(c1cnc(N2CCSCC2)nc1-c1ccccc1F)N(Cc1ccc(C(F)(F)F)cc1)C1CC1 [compound 85]
30 | > 10 | > 10 | > 10 | COc1cccc(N(C(=O)c2cnc(N3CCN(C)CC3)nc2-c2ccccc2F)C(C)C)c1 [compound 87]
31 | 2 to 10 | > 10 | > 10 | CC(C)N(C(=O)c1cnc(N2CCOCC2)nc1-c1ccccc1F)c1ccccc1 [compound 88]
32 | > 10 | > 10 | > 10 | COc1cccc(OC)c1-c1nc(N2CCOCC2)ncc1C(=O)N(Cc1ccccc1)C(C)C [compound 89]
33 | 2 to 10 | 2 to 10 | 2 to 10 | O=C(c1cnc(N2CCCCC2)nc1-c1ccccc1F)N(Cc1ccccc1)C1CC1 [compound 90]
34 | > 10 | > 10 | > 10 | O=C(c1cnc(N2CCOCC2)nc1-c1ccccc1F)N1CC=C(c2ccccc2)CC1 [compound 91]
35 | < 2 | > 10 | > 10 | CC(C)N(Cc1ccccc1)C(=O)c1cnc(N2CCC3CCCCC3C2)nc1-c1ccccc1F (stereo not drawn) [compound 92]
36 | 2 to 10 | 2 to 10 | > 10 | CC(C)N(C(=O)c1cnc(N2CCCCC2)nc1-c1ccccc1F)c1ccccc1 [compound 93]
37 | < 2 | < 2 | 2 to 10 | CC(C)N(Cc1ccc2c(c1)OCO2)C(=O)c1cnc(N2CCCCC2)nc1-c1ccccc1F [compound 94]
38 | < 2 | 2 to 10 | > 10 | CCN(CCC#N)c1ncc(C(=O)N(Cc2ccccc2)C(C)C)c(-c2ccccc2F)n1 [compound 96]
39 | > 10 | > 10 | > 10 | O=C(NC1CC1c1ccccc1)c1cnc(N2CCOCC2)nc1-c1ccccc1F (stereo not drawn) [compound 97]
40 | < 2 | 2 to 10 | 2 to 10 | CC(C)N(Cc1ccccc1)C(=O)c1cnc(N2CCSCC2)nc1-c1ccccc1F [compound 98]
41 | > 10 | > 10 | > 10 | O=C(c1cnc(N2CCOCC2)nc1-c1ccccc1F)N(Cc1cnc2ccccc2c1)C1CC1 [compound 99]
42 | 2 to 10 | 2 to 10 | > 10 | O=C(c1cnc(N2CCOCC2)nc1-c1ccccc1F)N(Cc1ccccc1)C1CC1 [compound 100]
43 | 2 to 10 | 2 to 10 | > 10 | CC(C)N(C(=O)c1cnc(N2CCCCC2)nc1-c1ccccc1Cl)c1cccc(C#N)c1 [compound 101]
44 | > 10 | > 10 | > 10 | N=C(N)NCCCNC(=O)c1cnc(N2CCC3CCCCC3C2)nc1-c1ccccc1F (stereo not drawn) [compound 102]
45 | < 2 | < 2 | > 10 | CCN(CCOC)c1ncc(C(=O)N(Cc2cccc(OC)c2)C(C)C)c(-c2ccccc2F)n1 [compound 103]
46 | > 10 | 2 to 10 | > 10 | COc1cccc(N(C(=O)c2c(C)nc(N3CCCCC3)nc2-c2ccccc2F)C(C)C)c1 [compound 104]

Row | Structure (SMILES) | IC50 (CaV2.2) [µM] | IC50 (NaV1.3) [µM] | IC50 (NaV1.8) [µM]
47 | CCC(=O)C1(c2ccccc2)CCN(C(=O)c2cnc(N3CCOCC3)nc2-c2ccccc2F)CC1 [compound 57] | > 10 | > 10 | > 10
